Experiments:
[1] = biological target: Replicase polyprotein 1a (Severe acute respiratory syndrome-related coronavirus) (UniProt P0C6U8); assay: Inactivation rate constant against SARS-CoV 3CLpro protease
[2] = biological target: Replicase polyprotein 1a (Severe acute respiratory syndrome-related coronavirus) (UniProt P0C6U8); assay: Half life period against SARS-CoV 3CLpro protease
Replicase polyprotein 1a = Replicase polyprotein 1a (Severe acute respiratory syndrome-related coronavirus, UniProt P0C6U8); assay: Inhibitory concentration required for antiviral activity against SARS-CoV 3CLpro protease
[3] = biological target: Replicase polyprotein 1a (Severe acute respiratory syndrome-related coronavirus) (UniProt P0C6U8)

Structure (SMILES)	kinact [1] [min⁻¹]	T1/2 [2] [h]	IC50 (Replicase polyprotein 1a) [µM]	kinact [3] [min⁻¹]
CCOC(=O)/C=C/[C@H](C[C@@H]1CCNC1=O)NC(=O)[C@H](Cc1ccccc1)CC(O)[C@@H](NC(=O)c1cc(C)on1)C(C)C (some centres undefined)	0.0025	4.62	–	–
CC(C)C[C@H](NC(=O)[C@@H](O)C(S)C(=O)O)C(=O)NCCCCN=C(N)N (some centres undefined)	0.0022	5.25	–	–
CCOC(=O)/C=C/[C@H](C[C@@H]1CCNC1=O)NC(=O)[C@@H](CC(=O)[C@@H](NC(=O)c1cc(C)on1)C(C)C)Cc1ccccc1	0.014	0.817	45	–
CCOC(=O)/C=C/[C@H](C[C@@H]1CCNC1=O)NC(=O)[C@H](CC=C(C)C)CC(=O)[C@@H](NC(=O)c1cc(C)on1)C(C)C	–	0.25	–	0.045

Source: ChEMBL document CHEMBL1141032, “Design and synthesis of peptidomimetic severe acute respiratory syndrome chymotrypsin-like protease inhibitors” (J Med Chem, 2005)
